Molecular target: GlmU (Mycobacterium tuberculosis, UniProt P9WMN3)
Assay: […]; double reciprocal plots; […]
Format: biochemical

GlmU, sequence (P9WMN3 2-495): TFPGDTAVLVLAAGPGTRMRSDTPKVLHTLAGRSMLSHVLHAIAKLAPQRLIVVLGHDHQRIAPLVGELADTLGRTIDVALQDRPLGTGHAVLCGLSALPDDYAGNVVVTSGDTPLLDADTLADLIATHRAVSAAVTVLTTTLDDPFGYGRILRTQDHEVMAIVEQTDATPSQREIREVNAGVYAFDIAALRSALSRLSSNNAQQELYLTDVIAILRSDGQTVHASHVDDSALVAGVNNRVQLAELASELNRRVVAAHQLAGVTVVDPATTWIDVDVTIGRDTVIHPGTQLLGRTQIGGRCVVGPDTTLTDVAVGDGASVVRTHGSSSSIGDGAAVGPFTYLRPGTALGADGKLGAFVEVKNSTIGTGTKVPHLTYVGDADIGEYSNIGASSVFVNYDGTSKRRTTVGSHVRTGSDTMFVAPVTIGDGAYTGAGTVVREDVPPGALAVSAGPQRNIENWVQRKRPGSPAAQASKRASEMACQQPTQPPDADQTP

SMILES: O=C(O)Cc1ccc(C(=O)CSc2nccc(-c3cccs3)n2)s1 [TPSA, 2-[5-(2-{[4-(2-thienyl)-2-pyrimidinyl]sulfanyl}acetyl)-2-thienyl]acetic acid]
- IC50: 5.3 ± 0.48 µM

Reference: paper PMC6652808, “The Inhibitory Effect of GlmU Acetyltransferase Inhibitor TPSA on Mycobacterium tuberculosis May Be Affected Due to Its Methylation by Methyltransferase Rv0560c” (Frontiers in Cellular and Infection Microbiology, 2019)
